Source: ChEMBL document CHEMBL1201862, “PubChem BioAssay data set” (2004)
Structures can show the parent of a compound that is named as a salt.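 Briefly, cells in 96-well plates were exposed to five compound concentrations for 48 h, and endpoints were estimated by linear interpolation. Abbreviation: GI50, concentration required for 50% inhibition of growth.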 Calls of active or inactive are those of the source. Cut-off read from the data, not from the text of the source: active = GI50 up to about 1.1 µM and inactive = higher.

What was measured:
Assay in all cases: growth of human tumour cells (NCI), 48 h
786-0 = tested on: 786-0
ACHN = tested on: ACHN
HOP-62 = tested on: HOP-62
HOP-92 = tested on: HOP-92
IGROV-1 = tested on: IGROV-1
LOX IMVI = tested on: LOX IMVI
M14 = tested on: M14
MDA-N = tested on: MDA-N
NCI-H226 = tested on: NCI-H226
OVCAR-5 = tested on: OVCAR-5
PC-3 = tested on: PC-3
RXF 393 = tested on: RXF 393
SF-295 = tested on: SF-295
SF-539 = tested on: SF-539
SNB-75 = tested on: SNB-75
SW-620 = tested on: SW-620
UACC-62 = tested on: UACC-62
A498 = tested on: A498
UO-31 = tested on: UO-31
SR = tested on: SR

Row | SMILES | GI50 (786-0) | GI50 (ACHN) | GI50 (HOP-62) | GI50 (HOP-92) | GI50 (IGROV-1) | GI50 (LOX IMVI) | GI50 (M14) | GI50 (MDA-N) | GI50 (NCI-H226) | GI50 (OVCAR-5) | GI50 (PC-3) | GI50 (RXF 393) | GI50 (SF-295) | GI50 (SF-539) | GI50 (SNB-75) | GI50 (SW-620) | GI50 (UACC-62) | GI50 (A498) | GI50 (UO-31) | GI50 (SR)
1 | S=C(NCc1ccccc1)c1nc[nH]c1C(=S)NCc1ccccc1 | 5.96 µM (inactive) | 2.69 µM (inactive) | 10 µM (inactive) | 1.88 µM (inactive) | 5.08 µM (inactive) | 4.72 µM (inactive) | 5.55 µM (inactive) | 7.74 µM (inactive) | 1.78 µM (inactive) | 6.98 µM (inactive) | 7.82 µM (inactive) | 11.1 µM (inactive) | 4.57 µM (inactive) | 10.4 µM (inactive) | 6.12 µM (inactive) | 4.98 µM (inactive) | 3.2 µM (inactive) |  |  | 
2 | Cc1nnc2sc(Cl)nn12 | 26.5 µM (inactive) | 23.3 µM (inactive) | 38 µM (inactive) |  | 16.4 µM (inactive) | 10 µM (inactive) | 13.6 µM (inactive) | 20.2 µM (inactive) | 28.6 µM (inactive) | 23 µM (inactive) | 17.2 µM (inactive) | > 10 µM (inactive) | 17.7 µM (inactive) | 20.9 µM (inactive) | 45.3 µM (inactive) | 3.92 µM (inactive) | 4.51 µM (inactive) | 31.3 µM (inactive) | 29.6 µM (inactive) | 
3 | CC(=O)OC1=C(c2ccccc2)S(=O)(=O)c2ccccc21 | > 100 µM (inactive) | > 100 µM (inactive) | > 100 µM (inactive) | > 100 µM (inactive) | > 100 µM (inactive) | > 100 µM (inactive) | > 100 µM (inactive) |  | > 100 µM (inactive) | > 100 µM (inactive) | > 100 µM (inactive) | 64 µM (inactive) | > 100 µM (inactive) | > 100 µM (inactive) | > 100 µM (inactive) | > 100 µM (inactive) | > 100 µM (inactive) | > 100 µM (inactive) | > 100 µM (inactive) | > 100 µM (inactive)
4 | O=C1NC(=S)NC(=O)C1C(c1ccc(Cl)cc1)C1C(=O)NC(=S)NC1=O.c1ccncc1 | > 100 µM (inactive) | > 100 µM (inactive) | > 100 µM (inactive) | > 100 µM (inactive) | > 100 µM (inactive) | > 100 µM (inactive) | > 100 µM (inactive) | > 100 µM (inactive) | > 100 µM (inactive) | > 100 µM (inactive) | > 100 µM (inactive) | > 100 µM (inactive) | > 100 µM (inactive) |  |  | > 100 µM (inactive) | > 100 µM (inactive) | > 100 µM (inactive) | > 100 µM (inactive) | 
5 | CC(C)(C)OC(=O)NCCCCC(NC(=O)c1ccccc1)C(N)=O (centres undefined) | > 100 µM (inactive) | > 100 µM (inactive) | > 100 µM (inactive) |  |  | > 100 µM (inactive) | > 100 µM (inactive) | > 100 µM (inactive) | > 10 µM (inactive) | > 100 µM (inactive) | > 100 µM (inactive) | > 100 µM (inactive) | > 100 µM (inactive) | > 100 µM (inactive) | > 100 µM (inactive) | > 100 µM (inactive) | 71.9 µM (inactive) | > 100 µM (inactive) | > 100 µM (inactive) | 
6 | O=c1[nH]nc(Cc2ccc(Cl)cc2)n1Nc1ccccc1 | 73.6 µM (inactive) | > 100 µM (inactive) | 79.6 µM (inactive) | > 100 µM (inactive) | > 100 µM (inactive) | > 100 µM (inactive) | > 100 µM (inactive) | > 100 µM (inactive) | > 100 µM (inactive) | > 100 µM (inactive) | > 100 µM (inactive) |  | > 100 µM (inactive) | 80 µM (inactive) | 48.8 µM (inactive) | > 100 µM (inactive) | > 100 µM (inactive) | > 100 µM (inactive) | > 100 µM (inactive) | 
7 | C[C@@H]1CCC2C(C)(C)C(/C=C\C=O)C3(C)OC213 (some centres undefined) | 28.8 µM (inactive) | 71.4 µM (inactive) | 38.9 µM (inactive) | 26.5 µM (inactive) | 24.6 µM (inactive) |  | 65.2 µM (inactive) | 26 µM (inactive) |  | 24.5 µM (inactive) | 41.2 µM (inactive) | 33.3 µM (inactive) | 35.1 µM (inactive) |  | 29.1 µM (inactive) | 40.9 µM (inactive) | 53.2 µM (inactive) | > 100 µM (inactive) | 52.5 µM (inactive) | 
8 | CCOC(=O)c1nnsc1N/N=C\c1ccc([N+](=O)[O-])cc1 | 80 µM (inactive) | > 100 µM (inactive) | 60 µM (inactive) |  | > 100 µM (inactive) |  | > 100 µM (inactive) | > 100 µM (inactive) | > 100 µM (inactive) | > 100 µM (inactive) | > 100 µM (inactive) | > 100 µM (inactive) | > 100 µM (inactive) |  | 44.5 µM (inactive) | > 100 µM (inactive) | > 100 µM (inactive) |  | > 100 µM (inactive) | 
9 | CCN1CCCC(Nc2cc(C)nc(NC(=N)Nc3ccc(Cl)c(Cl)c3)n2)C1 (centres undefined) | 1.54 µM (inactive) | 2.32 µM (inactive) | 1.43 µM (inactive) | 1.31 µM (inactive) | 1.38 µM (inactive) |  | 0.254 µM (active) | 1.67 µM (inactive) |  | 2.74 µM (inactive) |  |  | 1.07 µM (active) | 1.88 µM (inactive) | 1.25 µM (inactive) |  | 1.85 µM (inactive) |  | 0.982 µM (active) | 1.2 µM (inactive)
10 | CN(C)Cc1cc(/C=C/C(=O)c2ccc(Br)cc2)cc(CN(C)C)c1O | 16 µM (inactive) | 11.5 µM (inactive) | 30.1 µM (inactive) |  | 8.95 µM (inactive) |  | 31.2 µM (inactive) | 17.1 µM (inactive) |  | 35.2 µM (inactive) | 26.6 µM (inactive) | 19.2 µM (inactive) | 21.8 µM (inactive) | 13.1 µM (inactive) | 12.5 µM (inactive) | 19.1 µM (inactive) | 20.4 µM (inactive) | 13.6 µM (inactive) | 10.7 µM (inactive) | 
11 | COc1cc2cc3c4cc(OC)c(OC)cc4cc[n+]3c(C)c2cc1OC [CORALYNE] | 15.6 µM (inactive) | > 100 µM (inactive) |  | > 100 µM (inactive) | 37.3 µM (inactive) | > 100 µM (inactive) |  | > 100 µM (inactive) | 30.4 µM (inactive) | > 100 µM (inactive) | > 100 µM (inactive) |  | 28.6 µM (inactive) | 41.7 µM (inactive) | 10.2 µM (inactive) | 58.7 µM (inactive) | 23.4 µM (inactive) | 6.05 µM (inactive) | > 100 µM (inactive) | 
12 | CN[C@@H](C)[C@@H](O)c1ccccc1 [PSEUDOEPHEDRINE HYDROCHLORIDE] | > 100 µM (inactive) | > 100 µM (inactive) | > 100 µM (inactive) | > 100 µM (inactive) | > 100 µM (inactive) | > 100 µM (inactive) | > 100 µM (inactive) | > 100 µM (inactive) | > 100 µM (inactive) | > 100 µM (inactive) | > 100 µM (inactive) |  | > 100 µM (inactive) | > 100 µM (inactive) | > 100 µM (inactive) | > 100 µM (inactive) |  |  | > 100 µM (inactive) | 
